The assay concerns the target T1, Human serum albumin (HSA) (Homo sapiens, UniProt P02768).
T1 construct: gene ALB
Kind of assay: intrinsic fluorescence quenching, excitation […] nm, emission […] nm. The assay is classed as binding. The conditions noted are these: 295 K, PBS pH 7.4, 0.5 uM HSA, no warfarin; double-log; n 0.8430; quenching described as dynamic; Sudlow's site I (IIA).

T1 sequence (P02768 25-609): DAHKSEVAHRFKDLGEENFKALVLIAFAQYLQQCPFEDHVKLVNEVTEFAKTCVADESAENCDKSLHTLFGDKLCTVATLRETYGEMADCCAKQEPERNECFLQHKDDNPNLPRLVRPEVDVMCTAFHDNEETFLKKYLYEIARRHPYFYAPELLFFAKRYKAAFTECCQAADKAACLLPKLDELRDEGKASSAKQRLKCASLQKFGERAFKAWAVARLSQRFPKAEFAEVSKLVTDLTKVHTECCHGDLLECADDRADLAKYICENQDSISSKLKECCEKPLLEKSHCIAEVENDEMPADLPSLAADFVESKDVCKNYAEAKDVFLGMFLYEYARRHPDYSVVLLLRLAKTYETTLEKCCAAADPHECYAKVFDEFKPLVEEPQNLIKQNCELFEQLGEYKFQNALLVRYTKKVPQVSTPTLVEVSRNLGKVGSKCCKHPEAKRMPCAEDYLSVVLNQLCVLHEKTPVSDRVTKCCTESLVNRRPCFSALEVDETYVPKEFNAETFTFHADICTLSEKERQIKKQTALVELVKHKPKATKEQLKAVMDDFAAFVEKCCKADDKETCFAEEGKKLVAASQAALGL

On to `CC(C)=CCc1cc(/C=C/C(=O)O)cc(CC=C(C)C)c1O` [Artepillin C, 3,5-diprenyl-4-hydroxycinnamic acid], for which the “KA” value amounted to 908000 L/mol.
